Results reported in patent publication US20050014751A1, “Use of n-acyl homoserine lactones for the treatment of insulitis” (priority 2001, published 2005).

What was measured:
diabetes in NOD mice = experiment: Alleviation of diabetes in NOD mice (incidence of diabetes, Uristix); type: in vivo; conditions: above 6 mMol glucose/l = diabetes
Experimental: The ability of the lead compound (OdDHL) to alleviate diabetes in NOD mice was determined by treating the mice 3 times per week for 4 weeks at 30 mg/kg as above. DMSO and OHHL were used as controls.
Diabetes was diagnosed using Uristix and a level of above 6 mMol glucose/I was taken to indicate the presence of diabetes.

murine splenocytes = experiment: ConA mitogen-stimulated proliferation of murine splenocytes; type: cell-based, BALB/c mice; conditions: ConA 1 μg/ml, 100,000 spleen cells, 1 mM to 0.1 μM
Experimental: The concanavalin A (ConA) cell proliferation assay was used to assess the effect of homoserine lactone (HSL) compounds on T-cell activation and proliferation. Proliferation was assessed by the incorporation of [^3H]-thymidine into DNA. Eight-week-old female BALB/c mice were obtained from Harlan (Bicester, Oxon, UK) and given food and water ad libitum. Splenocyte suspensions were prepared by removing the spleens and placing them into. RPMI 1640 medium. The spleens were forced through 70-μm-pore-size wire gauzes using the plunger from a 5-ml syringe to produce a single cell suspension. The cells were pelleted by centrifugation, and erythrocytes were lysed with 0.017M Tris, 0.144M ammonium chloride buffer, pH 7.2. Leucocytes were washed twice with RPMI 1640 medium with 2% (vol/vol) foetal calf serum (FCS) and resuspended in complete cell culture medium (CTCM) consisting of RPMI 1640 medium with 5% FCS, 2 mM L-glutamine, and 5×10^−5 M 2-mercaptoethanol. […] After the addition of 25 μl of MicroScint-O (Packard) to each well the filters were counted with the Packard TopCount scintillation counter. […]
(§1) In the cell culture assays the number of cells used (mouse splenocytes and human PBMC) was initially optimised to 100,000 cells per well. The optimal dose of ConA of 1 μg/ml used in the cell proliferation assays was determined from ConA titration curves. […]

human PBMC = experiment: ConA mitogen-stimulated proliferation of human PBMC; type: cell-based; conditions: ConA 1 μg/ml, 100,000 PBMC
Experimental: Blood specimens were obtained with consent from healthy human volunteers. Human peripheral blood mononuclear cells (PBMC) were isolated from heparinised whole blood by buoyant density centrifugation over Histopaque 1077 (Sigma, Poole, UK) at 600 g for 20 minutes. PBMC harvested from the ‘buffy’ layers were washed twice with RPMI 1640 medium and resuspended in CTCM. HSL compounds were tested at similar dilutions as for murine splenocytes in 200 μl of CTCM, containing 1 μg/ml of ConA and 100,000 PBMC. Human PBMC were incubated for 48 h at 37° C. in 5% CO2-air, followed by pulsing with 0.25 μCi [^3H]-thymidine (see above). After a further incubation of 24 h cells were harvested onto fibreglass filters and then counted in the presence of MicroScint-O with the Packard TopCount.
Concanavalin induced cell proliferation of human peripheral blood mononuclear cells (PBMC) was tracked, as described in I above, by a measurement of counts per minute using the scintillation counter. The inhibitory effect of an HSL compound being tested on cell proliferation was indicated by a reduction in counts per minute. […]
as §1

TNF-alpha production = TNF-alpha production from LPS-stimulated human PBMC; type: cell-based
Experimental: Bacterial lipopolysaccharide (LPS) stimulates the production of a variety of cytokines, including TNF-alpha, from human PBMC; these cytokines in turn influence the development of T cells, supporting a T helper 1 conducive milieu. Human PBMC prepared from whole blood by buoyant density centrifugation were resuspended in CTCM. HSL compounds were again tested at similar dilutions as for murine splenocytes in 200 μl of CTCM, containing 5×10^−5 μg/ml LPS Escherichia coli strain 055:B5 (Sigma, Poole, UK) and 100,000 PBMC. Following incubation for 24 h at 37° C. in 5% CO2-air, the cell culture supernatants were collected and tested for TNF-alpha levels by ‘sandwich’ ELISA. Briefly, 96-well Nunc MaxiSorp (Life Technologies, Paisley, UK) plates were coated with 50 μl of a 2 μg/ml solution of mouse anti-human TNF-alpha monoclonal antibody (Pharmingen, UK) in 0.05 M carbonate/bicarbonate buffer, pH 9.6 overnight at 4° C. After washing the plates three times with PBS-Tween, which contained phosphate buffered saline (PBS) with 0.5% (vol/vol) Tween 20 (Sigma, Poole, UK), the plates were blocked with 1% (wt/vol) bovine serum albumin (BSA) (Sigma, Poole, UK) at room temperature for 2 h. […] Following four washes, the bound biotinylated antibody was detected with 50 μl of a 1:1,000 dilution of Streptavidin-peroxidase (Pharmingen, UK). […] The enzyme reaction was stopped with 50 μl of 2.5 M H2SO4 after an incubation of 10 minutes at room temperature and the development was read at 450 nm with a spectrophotometric 96-well plate reader (Dynex). […]
Similar studies were carried out using, as the HSL compounds, N-(12-bromo-3-oxododecanoyl)-L-homoserine lactone (12BrOdDHL) and N-(12-hydroxy-3-oxododecanoyl)-L-homoserine lactone (12hydroxyOdDHL) and the plots for these are shown in FIG. 9. […] The IC50 value for dexamethasone was determined to be 500.
as §1

In the case of `CCCC(=O)CC(=O)N[C@H]1CCOC1=O` [OHHL, N-(3-oxohexanoyl)-L-homoserine lactone, reference compound], the incidence of diabetes (diabetes in NOD mice; Week of Experiment 20, 30 mg/kg 3 times per week for 4 weeks) is reported as 7/10 and the incidence of diabetes (diabetes in NOD mice; Week of Experiment 30, 30 mg/kg 3 times per week for 4 weeks, week 30 of experiment) is reported as 12/20.

For `CCCCCC(=O)CC(=O)N[C@H]1CCOC1=O` [OOHL, N-(3-oxooctanoyl)-L-homoserine lactone, reference compound], the “inhibition of splenocyte proliferation ([3H]-thymidine cpm, FIG. 6)” value (murine splenocytes) was “failed to inhibit proliferation”.

For `CCCCCCCCCCCC(=O)CC(=O)N[C@H]1CCOC1=O` [OtDHL, N-(3-oxotetradecanoyl)-L-homoserine lactone], the “inhibition of proliferation of human PBMC ([3H]-thymidine cpm, FIG. 7)” value (human PBMC) was “inhibited proliferation” and the “inhibition of TNF-α secretion (FIG. 8)” value (TNF-alpha production; LPS 5×10^−5 μg/ml, 100,000 PBMC, 24 h, ELISA) was “inhibited the secretion”.

`C[C@@H]1C[C@H]2[C@@H]3CCC4=CC(=O)C=C[C@]4(C)[C@@]3(F)[C@@H](O)C[C@]2(C)[C@@]1(O)C(=O)CO` [dexamethasone, reference compound] was tested, and the IC50 (TNF-alpha production; LPS-stimulated human PBMC, unit from the IC50 definition, read-out: IC50, concentration which inhibits TNF-α secretion by 50%) was 500 µM.
